Reference: ChEMBL document CHEMBL4342498, “Design and Discovery of an Orally Efficacious Spiroindolinone-Based Tankyrase Inhibitor for the Treatment of Colon Cancer” (J Med Chem, 2020)
In brackets after ≈: the same amount, converted by molar mass.

Tests used:
[1] = target: T1, Poly [ADP-ribose] polymerase tankyrase-1 (Homo sapiens, UniProt O95271)
T1 sequence (O95271 whole entry): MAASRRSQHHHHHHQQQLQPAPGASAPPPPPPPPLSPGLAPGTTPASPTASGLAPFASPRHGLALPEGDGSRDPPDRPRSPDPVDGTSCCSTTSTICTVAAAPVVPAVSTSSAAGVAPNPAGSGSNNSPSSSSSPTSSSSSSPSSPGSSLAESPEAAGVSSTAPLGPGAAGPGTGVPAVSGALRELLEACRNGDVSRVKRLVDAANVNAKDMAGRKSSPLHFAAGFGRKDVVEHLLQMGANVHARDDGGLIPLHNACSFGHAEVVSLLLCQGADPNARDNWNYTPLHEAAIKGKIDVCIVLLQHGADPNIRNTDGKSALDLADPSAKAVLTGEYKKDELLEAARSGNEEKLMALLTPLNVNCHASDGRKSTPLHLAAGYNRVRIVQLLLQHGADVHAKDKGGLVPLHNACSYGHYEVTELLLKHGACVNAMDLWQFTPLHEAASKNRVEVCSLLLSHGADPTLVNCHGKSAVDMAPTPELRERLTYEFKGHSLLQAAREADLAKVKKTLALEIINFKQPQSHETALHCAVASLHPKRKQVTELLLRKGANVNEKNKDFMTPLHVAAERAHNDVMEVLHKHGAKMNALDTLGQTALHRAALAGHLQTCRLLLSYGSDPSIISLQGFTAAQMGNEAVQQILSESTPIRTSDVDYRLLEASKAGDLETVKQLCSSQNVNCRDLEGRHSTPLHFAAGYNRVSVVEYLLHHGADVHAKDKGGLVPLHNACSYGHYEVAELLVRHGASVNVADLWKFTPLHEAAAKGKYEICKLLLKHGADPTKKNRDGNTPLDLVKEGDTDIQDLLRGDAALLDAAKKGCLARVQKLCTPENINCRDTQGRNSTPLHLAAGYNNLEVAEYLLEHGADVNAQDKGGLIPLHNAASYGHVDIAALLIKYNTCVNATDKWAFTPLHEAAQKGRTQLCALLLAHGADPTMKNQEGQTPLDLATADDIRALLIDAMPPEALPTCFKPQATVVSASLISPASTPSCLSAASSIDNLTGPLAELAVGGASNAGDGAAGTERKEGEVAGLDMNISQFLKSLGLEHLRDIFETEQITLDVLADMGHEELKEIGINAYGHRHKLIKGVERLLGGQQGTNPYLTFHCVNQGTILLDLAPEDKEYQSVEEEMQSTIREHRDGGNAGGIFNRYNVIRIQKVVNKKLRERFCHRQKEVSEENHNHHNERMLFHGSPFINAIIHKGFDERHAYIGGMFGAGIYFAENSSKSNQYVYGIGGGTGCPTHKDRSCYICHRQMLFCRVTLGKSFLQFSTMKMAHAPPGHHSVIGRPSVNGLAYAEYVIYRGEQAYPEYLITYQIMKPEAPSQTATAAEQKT
Description: Inhibition of recombinant human N-terminal TEV cleavage site-fused/FLAG-poly his-tagged TNKS SAM-PARP domain (1024 to 1327 residues) expressed in Escherichia coli assessed as reduction in auto-PARylation preincubated for 10 mins followed by biotinylated-NAD+ addition and measured after 45 mins by ELISA

[2] = Stability in mouse liver microsomes assessed as parent compound remaining at 1 uM measured after 60 mins in presence of NADPH by LC-MS/MS analysis; format: ADME, Microsome; conditions: read-out: Stability
[3] = target: T2, Poly [ADP-ribose] polymerase tankyrase-2 (Homo sapiens, UniProt Q9H2K2); assay: Inhibition of recombinant human N-terminal TEV cleavage site-fused/FLAG-poly his-tagged TNKS2 ARC5-SAM-PARP domain (613 to 1166 residues) expressed in Escherichia coli assessed as reduction in auto-PARylation preincubated for 10 mins followed by biotinylated-NAD+ addition and measured after 45 mins by ELISA
T2 sequence (Q9H2K2 whole entry): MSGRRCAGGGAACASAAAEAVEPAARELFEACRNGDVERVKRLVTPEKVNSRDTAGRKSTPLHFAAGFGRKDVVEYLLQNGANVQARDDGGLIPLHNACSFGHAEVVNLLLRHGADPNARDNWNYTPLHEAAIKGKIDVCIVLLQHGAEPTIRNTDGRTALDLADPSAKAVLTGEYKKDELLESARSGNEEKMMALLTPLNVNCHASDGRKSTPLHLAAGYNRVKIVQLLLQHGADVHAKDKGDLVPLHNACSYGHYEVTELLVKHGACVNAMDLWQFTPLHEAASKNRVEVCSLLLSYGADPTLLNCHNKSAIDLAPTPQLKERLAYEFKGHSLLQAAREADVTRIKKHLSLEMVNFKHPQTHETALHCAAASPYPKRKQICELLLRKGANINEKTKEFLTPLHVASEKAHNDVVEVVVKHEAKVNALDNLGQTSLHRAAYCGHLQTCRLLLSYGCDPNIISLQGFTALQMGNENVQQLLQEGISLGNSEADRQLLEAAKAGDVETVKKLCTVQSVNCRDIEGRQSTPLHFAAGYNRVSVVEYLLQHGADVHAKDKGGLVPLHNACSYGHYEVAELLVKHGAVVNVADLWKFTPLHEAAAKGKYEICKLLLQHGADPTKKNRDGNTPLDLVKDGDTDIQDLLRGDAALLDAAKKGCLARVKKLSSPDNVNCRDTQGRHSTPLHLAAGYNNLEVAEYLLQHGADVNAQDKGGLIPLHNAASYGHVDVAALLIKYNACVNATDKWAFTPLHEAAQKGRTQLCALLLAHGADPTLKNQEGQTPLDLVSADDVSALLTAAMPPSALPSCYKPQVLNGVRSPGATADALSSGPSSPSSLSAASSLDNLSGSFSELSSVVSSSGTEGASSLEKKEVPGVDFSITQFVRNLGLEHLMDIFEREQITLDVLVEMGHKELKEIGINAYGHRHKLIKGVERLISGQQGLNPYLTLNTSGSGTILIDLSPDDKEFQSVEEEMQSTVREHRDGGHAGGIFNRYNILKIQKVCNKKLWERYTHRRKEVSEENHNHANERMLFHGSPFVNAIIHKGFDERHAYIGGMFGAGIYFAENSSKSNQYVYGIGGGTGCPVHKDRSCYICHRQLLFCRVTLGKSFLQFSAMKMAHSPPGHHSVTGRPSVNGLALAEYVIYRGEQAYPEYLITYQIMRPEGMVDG

[4] = test system: COLO 320DM; assay: Antiproliferative activity against human COLO320DM cells assessed as inhibition of cell growth measured after 4 days by CellTiter-Glo assay; format: functional; conditions: 96 h
[5] = target: T3, Tankyrase 1/2 (Homo sapiens, UniProt Q9H2K2+O95271); conditions: hek293
T3 sequence (Q9H2K2 whole entry): T2 sequence (Q9H2K2 whole entry)
T3 sequence (O95271 whole entry): T1 sequence (O95271 whole entry)
Description: Inhibition of TNKS/TNKS2 (unknown origin) expressed in HEK293 cells assessed as reduction in Wnt-signaling measured after 24 hrs by TCF-luciferase reporter gene assay

[6] = Stability in human liver microsomes assessed as parent compound remaining at 1 uM measured after 60 mins in presence of NADPH by LC-MS/MS analysis; format: ADME, Microsome; conditions: read-out: Stability
[7] = physchem; conditions: phosphate buffered saline, pH 7.4
[8] = Net efflux ratio of permeability across basolateral to apical side over apical to basolateral side in MDCK2-MDR1 cells to MDCK2 cells; format: ADME, cell-based, Canis lupus familiaris; conditions: dog, mdck
[9] = target: T3, Tankyrase 1/2
Description: Inhibition of TNKS/TNKS2 (unknown origin) expressed in human DLD1 cells assessed as reduction in Wnt-signaling measured after 24 hrs by TCF-luciferase reporter gene assay

[10] = test system: MDR1; assay: Efflux ratio of permeability across basolateral to apical side over apical to basolateral side in MDCK2-MDR1 cells; format: ADME, cell-based, Canis lupus familiaris; conditions: dog, MDCK-MDR1
[11] = Efflux ratio of permeability across basolateral to apical side over apical to basolateral side in MDCK2 cells; format: ADME, cell-based, Canis lupus familiaris, MDCK-II; conditions: dog, mdck

| Compound | IC50 [1] | remaining at 1 h, 1 µM [2] | IC50 [3] | GI50 [4] | IC50 [5] | remaining at 1 h, 1 µM [6] | solubility at 1 h, 200 µM [7] | Ratio [8] | IC50 [9] | efflux ratio [10] | efflux ratio [11] |
| --- | --- | --- | --- | --- | --- | --- | --- | --- | --- | --- | --- |
| COCCOc1cc(F)c2c(c1)N(C)C(=O)C21CCN(c2nc3c(c(=O)[nH]2)CCCN3C)CC1 | 4.8 nM | 13.7% | 6.4 nM | 50 nM | 0.1 nM | 1.8% | 11.4 µg/mL (≈ 24.2 µM) | 3.6 | 1.3 nM | 7.5 | 2.1 |
| Cc1cccc2c(=O)[nH]c(N3CCC4(CC3)C(=O)N(CCO)c3cc(F)cc(F)c34)nc12 | 5.3 nM |  | 3.4 nM | 2490 nM | 0.2 nM |  |  |  | 4.8 nM |  |  |
| CN1CCCc2c1nc(N1CCC3(CC1)C(=O)N(C)c1cc(N4CCNCC4)cc(F)c13)[nH]c2=O | 12.8 nM | 63.7% | 23.4 nM | 1120 nM | 3.2 nM | 28.6% | 97.3 µg/mL (≈ 202 µM) | 1.3 | 29.1 nM | 9.1 | 6.8 |
| CN1CCCc2c1nc(N1CCC3(CC1)C(=O)N(CC1COC1)c1cc(F)cc(F)c13)[nH]c2=O | 7.8 nM | 0.3% | 12.2 nM | 200 nM | 0.3 nM | 0% | 9.3 µg/mL (≈ 19.7 µM) | 7 | 7.2 nM | 8.4 | 1.2 |
| Cn1ccc2c(=O)[nH]c(N3CCC4(CC3)CN(CCO)c3cc(F)cc(F)c34)nc21 | 3.8 nM |  | 7 nM | 3560 nM | 1.1 nM |  |  |  | 7.1 nM |  |  |
| O=C1N(CCO)c2cc(F)cc(F)c2C12CCN(c1nc3c(c(=O)[nH]1)CCCC3)CC2 | 14.9 nM |  | 20.6 nM | 2270 nM | 2.1 nM |  |  |  | 71.2 nM |  |  |
| COCCN1C(=O)C2(CCN(c3nc4c(c(=O)[nH]3)CCCN4C)CC2)c2c(F)cc(F)cc21 | 10.3 nM | 0.1% | 11.7 nM | 50 nM | 0.3 nM | 1.8% | 6.3 µg/mL (≈ 13.7 µM) | 3.7 | 3 nM | 4.8 | 1.3 |
| CN(C)CCOc1cc(F)c2c(c1)N(C)C(=O)C21CCN(c2nc3c(c(=O)[nH]2)CCCN3C)CC1 | 4.9 nM | 83.7% | 11.1 nM | 810 nM | 0.3 nM | 54.4% | 95 µg/mL (≈ 196 µM) | 2.5 | 6.1 nM | 22.7 | 9.2 |
| CN1CCCc2c1nc(N1CCC3(CC1)C(=O)N(C)c1cc(N4CCCCC4)cc(F)c13)[nH]c2=O | 21.3 nM | 10.5% | 49.1 nM | 300 nM | 0.7 nM | 1.5% | 5 µg/mL (≈ 10.4 µM) | 2.3 | 6.4 nM | 2.3 | 1 |
| CN1CCCc2c1nc(N1CCC3(CC1)C(=O)N(CC(=O)O)c1cc(F)cc(F)c13)[nH]c2=O | 28.5 nM | 100% | 29.8 nM | 12600 nM | 221 nM | 100% | 92.1 µg/mL (≈ 200 µM) | 1.3 | 1185 nM | 0.5 | 0.4 |
| CN1CCCc2c1nc(N1CCC3(CC1)C(=O)N(CC#N)c1cc(F)cc(F)c13)[nH]c2=O | 3.7 nM | 1.2% | 6.1 nM | 440 nM | 0.2 nM | 6.1% | 50.5 µg/mL (≈ 115 µM) | 5.1 | 1.6 nM | 11.7 | 2.3 |
| Cc1cccc2c(=O)[nH]c(N3CCC4(CC3)CN(CCO)c3cc(F)cc(F)c34)nc12 | 5.5 nM |  | 8.5 nM | 720 nM | 3.1 nM |  |  |  | 13.7 nM |  |  |
| CN1CCCc2c1nc(N1CCC3(CC1)C(=O)N(C)c1cc(OCCO)cc(F)c13)[nH]c2=O | 3.5 nM | 0.7% | 4.7 nM | 160 nM | 0.8 nM | 19.8% | 75.1 µg/mL (≈ 164 µM) | 2.4 | 2.3 nM | 14.9 | 6.2 |
| CN1CCc2c1nc(N1CCC3(CC1)CN(CCO)c1cc(F)cc(F)c13)[nH]c2=O | 53.5 nM |  | 73.6 nM | 5010 nM | 36.5 nM |  |  |  | 140.6 nM |  |  |
| CN1CCc2c1nc(N1CCC3(CC1)C(=O)N(CCO)c1cc(F)cc(F)c13)[nH]c2=O | 14.1 nM |  | 27.6 nM | 2370 nM | 4.4 nM |  |  |  | 32.9 nM |  |  |
| Cn1ccc2c(=O)[nH]c(N3CCC4(CC3)C(=O)N(CCO)c3cc(F)cc(F)c34)nc21 | 4.5 nM |  | 10.2 nM | > 20000 nM | 1.5 nM |  |  |  | 6.3 nM |  |  |
